Patent publication US20220340665A1, “INHIBITOR AGAINST EXPRESSION OF IMMUNE CHECKPOINT MOLECULE” (RENASCIENCE INC., priority 2019, published 2022)

Target: human PAI-1 (Homo sapiens, UniProt P05121)
Test: PAI-1 inhibitory activity, t-PA with Spectrozyme t-PA chromogenic substrate (Reference Experimental Example 2)
Type: biochemical
Parameters: purchased Molecular Innovations, Inc. (USA)
Procedure: Subsequently, human-derived tissue plasminogen activator (t-PA) (manufactured by American Diagnostica, Inc. (USA); the same applies hereinafter) adjusted to 0.05 pmol/μL was added thereto, and the mixture was further incubated at 37° C. for 60 minutes. Then, 0.25 mM of Spectrozyme t-PA synthetic substrate (manufactured by American Diagnostica, Inc. (USA); the same applies hereinafter), which is a chromogenic substrate, was added. […]
Free p-nitroaniline removed from the chromogenic substrate (Spectrozyme t-PA) by t-PA action was measured using a spectrophotometer at an absorbance of 405 nm at 20-minute intervals, for 120 minutes.

[1] = Tables 5 to 7, first value column, head prints no concentration
[2] = Tables 5 to 7, second value column, head prints no concentration
[3] = compound 10 μm (head), system without compound after 120 minutes = 100%
[4] = compound 25 μm (head), system without compound after 120 minutes = 100%

human PAI-1, sequence (P05121 24-402): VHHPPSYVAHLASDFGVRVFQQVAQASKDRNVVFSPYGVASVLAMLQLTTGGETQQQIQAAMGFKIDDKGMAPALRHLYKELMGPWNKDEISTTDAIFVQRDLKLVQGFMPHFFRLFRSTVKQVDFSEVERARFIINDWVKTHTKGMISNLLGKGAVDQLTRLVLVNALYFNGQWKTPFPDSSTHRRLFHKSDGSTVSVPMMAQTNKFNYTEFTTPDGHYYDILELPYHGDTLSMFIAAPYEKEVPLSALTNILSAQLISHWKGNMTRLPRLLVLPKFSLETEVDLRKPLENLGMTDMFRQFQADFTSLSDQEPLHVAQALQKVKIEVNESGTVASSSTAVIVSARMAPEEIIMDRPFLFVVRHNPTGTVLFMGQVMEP

| PAI-1 activity % [3] [%] | PAI-1 activity % [4] [%] | Compound | PAI-1 activity % [1] [%] | PAI-1 activity % [2] [%] |
| --- | --- | --- | --- | --- |
|  |  | 2-((biphenyl-4-ylcarbonoyl)amino)-5-chlorobenzoic acid [Example 71] | 2.1 | 39.6 |
|  |  | 5-chloro-2-(((4-(methylcyclohexyl)phenyl)carbonyl)amino)benzoic acid [Example 98] | 0.1 | 41.5 |
| 28.5 | 100.3 | O=C(Nc1ccc(Cl)cc1C(=O)[O-])c1cccc(-c2ccncc2)c1.[Na+] [Example 8, 5-chloro-2-(((3-(pyridin-4-yl)phenyl)carbonyl)amino)sodium benzoate] |  |  |
| 21.9 | 77.4 | CC(C)(C)c1cccc(OCC(=O)Nc2ccc(Cl)cc2C(=O)O)c1 [Example 16, 2-(((3-tert-butylphenoxy)acetyl)amino)-5-chlorobenzioc acid] |  |  |
| 16.1 | 81.4 | CC(C)(C)c1cccc(OCC(=O)Nc2ccc(Cl)cc2C(=O)O)c1 [Example 18, 2-(((3-tert-butylphenoxy)acetyl)amino)-5-chlorobenzoic acid] |  |  |
| 0.3 | 10.0 | O=C(COc1ccc(C23CC4CC(CC(C4)C2)C3)cc1)Nc1ccc(Cl)cc1C(=O)O [Example 21] |  |  |
| 1.8 | 97.3 | Cn1c(C(=O)Nc2ccc(Cl)cc2C(=O)O)cc2cc(Br)ccc21 [Example 23] |  |  |
| 1.3 | 19.3 | O=C(COc1cccc(C23CC4CC(CC(C4)C2)C3)c1)Nc1ccc(Cl)cc1C(=O)O [Example 30] |  |  |
|  | 96.8 | O=C(O)c1cc(Cl)ccc1NC(=O)C1(c2cccc(-c3ccoc3)c2)CC1 [Example 35, 5-chloro-2-(((1-(3-(furan-3-yl)phenyl)cyclopropyl)carbonyl)amino)benzoic acid] |  |  |
|  | 94.6 | O=C(O)c1cc(Cl)ccc1NC(=O)c1cccc2c1Cc1ccccc1-2 [Example 38, 5-chloro-2-((9H-fluoren-1-ylcarbonyl)amino)benzoic acid] |  |  |
| 0.4 | 69.9 | O=C(COc1ccccc1-c1ccccc1)Nc1ccc(-c2ccoc2)cc1C(=O)O [Example 46, 2-(((biphenyl-2-yloxy)acetyl)amino)-5-(furan-3-yl)benzoic acid] |  |  |
| 0.7 | 75.8 | O=C(Nc1ccc(Cl)cc1C(=O)O)c1ccc(C(=O)C23CC4CC(CC(C4)C2)C3)cc1 [Example 56] |  |  |
|  | 36.6 | O=C(Nc1ccc(Cl)cc1C(=O)O)C(=O)c1c[nH]c2ccc(OCc3ccccc3)cc12 [Example 57, 2-(((5-(benzyloxy)-1H-indol-3-yl)(oxo)acetyl)amino)-5-chlorobenzoic acid] |  |  |
| 0.0 | 0.0 | O=C(Nc1ccc(Cl)cc1C(=O)O)c1cccc(-c2cccc3ccccc23)c1 [Example 58, 5-chloro-2-(((3-(naphthalen-1-yl)phenyl)carbonyl)amino)benzoic acid] |  |  |
| 36.9 |  | COc1ccccc1-c1cccc(OCC(=O)Nc2ccc(Cl)cc2C(=O)O)c1 [Example 61, 5-chloro-2-((((2'-methoxybiphenyl-3-yl)oxy)acetyl)amino)benzoic acid] |  |  |
| 0.3 | 21.3 | O=C(Nc1ccc(Cl)cc1C(=O)[O-])c1cccc(-c2cnc3ccccc3c2)c1.[Na+] [Example 63, 5-chloro-2-(((3-(quinolin-3-yl)phenyl)carbonyl)amino)sodium benzoate] |  |  |
| 0.7 | 74.3 | O=C(Nc1ccc(Cl)cc1C(=O)[O-])c1cccc(-c2cncc3ccccc23)c1.[Na+] [Example 64, 5-chloro-2-(((3-(isoquinolin-4-yl)phenyl)carbonyl)amino)sodium benzoate] |  |  |

| PAI-1 activity % [3] [%] | PAI-1 activity % [4] [%] | Compound | PAI-1 activity % [1] [%] | PAI-1 activity % [2] [%] |
| --- | --- | --- | --- | --- |
| 0.4 | 71.7 | O=C(Nc1ccc(Cl)cc1C(=O)[O-])c1cccc(-c2cccc3ncccc23)c1.[Na+] [Example 65, 5-chloro-2-(((3-(quinolin-50yl)phenyl)carbonyl)amino)sodium benzoate] |  |  |
| 0.1 | 22.6 | O=C(Nc1ccc(Cl)cc1C(=O)[O-])c1cccc(-c2cccc3cnccc23)c1.[Na+] [Example 66] |  |  |
| 0.6 | 90.4 | O=C(Nc1ccc(Cl)cc1C(=O)[O-])c1ccc(-c2cccc3cccnc23)cc1.[Na+] [Example 67, 5-chloro-2-(((4-(quinolin-8-yl)phenyl)carbonyl)amino)sodium benzoate] |  |  |
|  |  | Cl.O=C(O)c1cc(Cl)ccc1NC(=O)N1CCN(C(c2ccccc2)c2ccccc2)CC1 [Example 75, 5-chloro-2-(((4-(diphenylmethyl)piperacin-1-yl)carbonyl)amino)benzoic acid hydrochloride] | 4.7 | 86.4 |
|  |  | O=C(COC(c1ccccc1)c1ccccc1)Nc1ccc(Cl)cc1C(=O)O [Example 76, 5-chloro-2-(((diphenylmethoxy)acetyl)amino)benzoic acid] | 30.5 |  |
|  |  | O=C(CN1CCN(C(c2ccccc2)c2ccccc2)CC1)Nc1ccc(Cl)cc1C(=O)O [Example 77, 5-chloro-2-(((4-(diphenylmethyl)piperazin-1-yl)acetyl)amino)benzoic acid] |  | 69.6 |
|  |  | O=C(Nc1ccc(Cl)cc1C(=O)O)c1cccc(C2=CCCCC2)c1 [Example 79, 5-chloro-2-(((3-(cyclohex-1-en-1yl-)phenyl)carbonyl)amino)benzoic acid] | 1.6 | 44.5 |
|  |  | O=C(Nc1ccc(C2=CCCCC2)cc1C(=O)O)c1ccc(C2CCCCC2)cc1 [Example 81, 5-(cyclohex-1-en-1-yl)-2-(((4-cylcohexylphenyl)carbonyl)amino)benzoic acid] | 0.0 | 1.0 |
|  |  | Cc1ccc(C23CC4CC(CC(C(=O)Nc5ccc(Cl)cc5C(=O)O)(C4)C2)C3)cc1 [Example 86] | 1.4 | 63.5 |
|  |  | O=C(/C=C(/Cl)C1CCCCC1)Nc1ccc(Cl)cc1C(=O)O [Example 91, 5-chloro-2-(((2E)-3-chloro-3-cyclohexlprop-2-encyl)amino)benzoic acid] | 16.7 | 96.9 |
|  |  | O=C(Nc1ccc(CCC2CCCCC2)cc1C(=O)O)c1ccc(C2CCCCC2)cc1 [Example 93, 5-(2-cyclohexylethyl)2-(((4-cyclohexylphenyl)carbonyl)amino)beznoic acid] | 0.0 | 0.0 |
|  |  | O=C(C=Cc1ccc(C23CC4CC(CC(C4)C2)C3)cc1)Nc1ccc(Cl)cc1C(=O)O [Example 94, 2-((3-(4-(adamantan-1-yl)phenyl)prop-2-enoyl)amino)-5-chlorobenzoic acid] | 7.4 | 3.5 |
|  |  | C#Cc1ccc(NC(=O)c2ccc(C3CCCCC3)cc2)c(C(=O)O)c1 [Example 95, 2-(((4-cyclohexylphenyl)carbonyl)amino)-5-ethynlbenzoic acid] | 0.3 | 80.5 |
|  |  | O=C(Nc1ccc(Cl)cc1C(=O)[O-])c1cccc(OCc2ccc3ccccc3n2)c1.[Na+] [Example 99, 5-chloro-2-(((3-(quinolin-2-ylmethoxy)phenyl)carbonyl)amino)sodium benzoate] | 0.3 | 87.8 |
|  |  | O=C(Nc1ccc(Cl)cc1C(=O)[O-])c1ccc(OCc2ccc3ccccc3n2)cc1.[Na+] [Example 100, 5-chloro-2-(((4-(quinolin-2-ylmethoxy)phenyl)carbonyl)amino)sodium benzoate] | 0.7 | 92.1 |
|  |  | O=C(/C=C/c1cccc(-c2cccc3cccnc23)c1)Nc1ccc(Cl)cc1C(=O)[O-].[Na+] [Example 101, 5-chloro-2-(((2E)-3-(3-(quinolin-8-yl)phenyl)prop-2-enoyl)amino)sodium benzoate] | 0.2 | 24.7 |

| Compound | PAI-1 activity % [3] [%] | PAI-1 activity % [4] [%] | PAI-1 activity % [1] [%] | PAI-1 activity % [2] [%] |
| --- | --- | --- | --- | --- |
| 5-chloro-2-((3-(3-(furan-3-yl)phenyl)propenoyl)amino)benzoic acid [Example 36] | 3.7 | 95.7 |  |  |
| 5-chloro-2-(((3-(cyclohex-1-en-1yl)phenyl)acetyl)amino)benzoic acid [Example 25] | 0.0 | 85.8 |  |  |
| O=C(O)c1cc(Cl)ccc1NC(=O)C1CCCN(C(=O)c2cccc(-c3ccccc3)c2)C1 (stereo not drawn) [Example 31, 2-(((1-(biphenyl-3-ylcarbonyl)pipendin-3-yl)carbonyl)amino)-5-chlorobenzoic acid] | 20.2 | 88.0 |  |  |
| O=C(Nc1ccc(Cl)cc1C(=O)O)c1ccc(C2=CCOCC2)cc1 [Example 32, 5-chloro-2-(((4'-(3,6-dihydro-2H-pyran-4-yl)phenyl)carbonyl)amino)benzoic acid] | 1.7 | 94.4 |  |  |
| O=C(Nc1ccc(Cl)cc1C(=O)O)c1ccc(C2=CCOCC2)cc1 [Example 34, 5-chloro-2-(((4-(3,6-dihyrdo-2H-pyran-4-yl)phenyl)carbonyl)amino)benzoic acid] | 45.1 | 97.1 |  |  |
| CC(C)(Oc1cccc(-c2ccoc2)c1)C(=O)Nc1ccc(Cl)cc1C(=O)O [Example 44, 5-chloro-2-((2-(3-(furan-3-yl)phenoxy)-2-methylpropenoyl)amino)benzoic acid] | 20.4 | 97.6 |  |  |
